In assay [1] the target is Protein farnesyltransferase subunit beta/geranylgeranyltransferase type-1 subunit alpha (Homo sapiens, UniProt P49354+P49356). Description: Human FTase Assay.
Description: Assays were realized on 96-well plates, as described for yeast FTase but octyl-D-glucopyranoside (0.18%) was used instead of CHAPS and the solution contains 5 μLof partially purified human FTase (1.5 mg/mL)7 in 1 mL peptide solution.
For assay [2], the target named is T1, Protein farnesyltransferase subunit beta/geranylgeranyltransferase type-1 subunit alpha (Saccharomyces cerevisiae (strain ATCC 204508 / S288c), UniProt P22007+P29703).
T1 sequence (P22007 whole entry): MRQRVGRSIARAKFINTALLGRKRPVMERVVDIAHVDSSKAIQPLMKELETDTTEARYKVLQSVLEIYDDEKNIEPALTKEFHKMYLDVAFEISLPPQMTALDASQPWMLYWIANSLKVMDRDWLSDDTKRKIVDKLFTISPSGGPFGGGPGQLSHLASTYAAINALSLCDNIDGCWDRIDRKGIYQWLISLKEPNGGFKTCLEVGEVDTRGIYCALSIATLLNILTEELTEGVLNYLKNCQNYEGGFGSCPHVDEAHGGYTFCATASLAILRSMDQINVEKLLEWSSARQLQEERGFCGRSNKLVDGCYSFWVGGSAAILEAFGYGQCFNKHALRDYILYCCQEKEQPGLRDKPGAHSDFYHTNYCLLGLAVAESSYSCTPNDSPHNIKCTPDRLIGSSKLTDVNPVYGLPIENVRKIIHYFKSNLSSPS
T1 sequence (P29703 whole entry): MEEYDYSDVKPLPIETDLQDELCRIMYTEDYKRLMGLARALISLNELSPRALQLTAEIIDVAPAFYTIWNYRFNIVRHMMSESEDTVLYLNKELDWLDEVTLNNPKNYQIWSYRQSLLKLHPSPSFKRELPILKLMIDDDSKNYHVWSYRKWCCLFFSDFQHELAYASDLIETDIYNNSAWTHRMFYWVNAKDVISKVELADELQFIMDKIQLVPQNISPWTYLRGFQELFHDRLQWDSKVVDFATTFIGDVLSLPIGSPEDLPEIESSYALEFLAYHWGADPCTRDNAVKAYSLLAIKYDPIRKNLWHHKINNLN
Description: Yeast FTase Assay. The following applies: pH 7.5. Here is the method:
Assays were realized on 96-well plates, prepared with Biomek NKMC and Biomek 3000 from Beckman Coulter and read on Wallac Victor fluorimeter from Perkin-Elmer. Per well, 20 μL of farnesyl pyrophosphate (10 μM) was added to 180 μL of a solution containing 2 μL of varied concentrations of potential inhibitors (dissolved in DMSO) and 178 μL of a solution composed by 0.1 mL of partially purified recombinant yeast FTase (2.2 mg/ mL) and 7.0 mL of dansyl-GCVLS peptide (in the following buffer: 5.8 mM DTT, 6 mM MgCl2, 12 μM ZnCl2 and 0.09% (w/v) CHAPS, 53 mM Tris/HCl, pH 7.5). Then the fluorescence development was recorded for 15 min(0.7 second per well, 20 repeats) at 30°C with an excitation filter at 340 nm and an emission filter at 486 nm. Each measurement was realized twice as duplicate ortriplicate.

Assay [3] has as its target T2, Protein farnesyltransferase alpha subunit/subunit beta (Trypanosoma brucei brucei, UniProt Q9NC76+Q9NC77).
T2 sequence (Q9NC77 whole entry): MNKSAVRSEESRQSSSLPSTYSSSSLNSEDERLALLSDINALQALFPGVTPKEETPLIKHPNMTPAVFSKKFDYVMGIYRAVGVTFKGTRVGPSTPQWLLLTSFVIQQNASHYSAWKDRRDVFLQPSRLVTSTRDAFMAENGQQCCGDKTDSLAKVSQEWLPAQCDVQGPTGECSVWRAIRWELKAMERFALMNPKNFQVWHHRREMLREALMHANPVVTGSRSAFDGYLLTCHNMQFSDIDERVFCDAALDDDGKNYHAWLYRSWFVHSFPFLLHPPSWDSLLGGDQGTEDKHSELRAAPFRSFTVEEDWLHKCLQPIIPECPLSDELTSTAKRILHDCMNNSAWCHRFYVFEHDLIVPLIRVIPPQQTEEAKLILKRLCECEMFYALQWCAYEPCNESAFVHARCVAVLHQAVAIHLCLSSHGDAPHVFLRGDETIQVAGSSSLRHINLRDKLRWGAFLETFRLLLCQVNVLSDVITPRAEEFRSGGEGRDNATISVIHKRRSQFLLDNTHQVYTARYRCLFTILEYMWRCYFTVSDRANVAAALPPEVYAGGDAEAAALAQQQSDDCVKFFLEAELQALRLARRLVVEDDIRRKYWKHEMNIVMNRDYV
T2 sequence (Q9NC76 whole entry): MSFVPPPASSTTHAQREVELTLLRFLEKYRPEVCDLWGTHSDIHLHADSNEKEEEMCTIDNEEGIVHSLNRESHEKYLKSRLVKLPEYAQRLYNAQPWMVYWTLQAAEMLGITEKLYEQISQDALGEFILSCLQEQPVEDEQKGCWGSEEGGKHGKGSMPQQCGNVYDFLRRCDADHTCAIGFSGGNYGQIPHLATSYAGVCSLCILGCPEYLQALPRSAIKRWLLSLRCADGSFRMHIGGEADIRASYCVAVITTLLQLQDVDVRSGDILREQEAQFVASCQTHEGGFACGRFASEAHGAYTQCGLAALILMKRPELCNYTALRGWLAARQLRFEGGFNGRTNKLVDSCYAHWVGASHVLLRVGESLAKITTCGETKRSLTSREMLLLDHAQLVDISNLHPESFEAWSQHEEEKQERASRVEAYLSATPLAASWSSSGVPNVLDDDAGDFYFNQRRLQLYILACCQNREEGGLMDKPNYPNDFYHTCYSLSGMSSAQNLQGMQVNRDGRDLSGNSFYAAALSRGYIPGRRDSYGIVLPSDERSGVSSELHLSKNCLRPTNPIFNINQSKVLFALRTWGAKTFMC
Description: T. brucei FTase Assay. Here is the method:
Assays were realized on 96-well plates, as described for human FTase with the dansylated peptide Dansyl-GCAIM and the solution contains 15 μL of partially purified Tb-FTase (1.0 mg/mL) in 1 mL peptide solution.

Take `Cc1ccc(-c2c(C(=O)O)sc(SC(C)C)c2C#N)cc1` [3-(4-Tolyl)-4-cyano-5-(isopropylthio)thiophene-2-carboxylic acid (1t)]: the IC50 (as a rule, the concentration at which inhibition is half-maximal) in assay [1] was 21 µM; in assay [2], 0.19 µM; in assay [3] it was 17 µM.
`CC(C)Sc1sc(C(=O)O)c(-c2ccccc2Cl)c1C#N` [3-(2-Chlorophenyl)-4-cyano-5-(isopropylthio)thiophene-2-carboxylic acid (1c)]: the values for the IC50 in assay [1], in assay [2] and in assay [3] were greater than 50 µM, 1.4 µM and 37 µM, respectively.
Taken in the same sequence, the figures for `CC(C)Sc1sc(C(=O)O)c(-c2ccc3ccccc3c2)c1C#N` [3-(2-Naphthyl)-4-cyano-5-(isopropylthio)thiophene-2-carboxylic acid (1y)] were 4.8 µM, 0.32 µM and 9.7 µM.
Regarding `COc1ccccc1-c1c(C(=O)O)sc(SC(C)C)c1C#N` [3-(2-Methoxyphenyl)-4-cyano-5-(isopropylthio)thiophene-2-carboxylic acid (1l)], the IC50 is greater than 50 µM in assay [1], 9.7 µM in assay [2] and 37 µM in assay [3].
Taken in the same sequence, the figures for `CC(C)Sc1sc(C(=O)O)c(-c2ccccc2)c1C#N` [3-Phenyl-4-cyano-5-(isopropylthio)thiophene-2-carboxylic acid (1s)] were 34 µM, 0.61 µM and 42 µM.
With `CC(C)Sc1sc(C(=O)O)c(-c2ccc(C(F)(F)F)cc2)c1C#N` [3-(4-(Trifluoromethyl)phenyl)-4-cyano-5-(isopropylthio)thiophene-2-carboxylic acid (1g)], the IC50 in assay [2] was 0.58 µM.
Regarding `CC(C)Sc1sc(C(=O)O)c(-c2ccc(F)cc2)c1C#N` [3-(4-Fluorophenyl)-4-cyano-5-(isopropylthio)thiophene-2-carboxylic acid (1d)], the half-inhibitory concentration (IC50) is 20 µM in assay [1], 0.27 µM in assay [2] and 29 µM in assay [3].
For the molecule `CC(C)Sc1sc(C(=O)O)c(-c2ccc(Cl)cc2)c1C#N` [3-(4-Chlorophenyl)-4-cyano-5-(isopropylthio)thiophene-2-carboxylic acid (1a)], the results for the IC50 in assay [2] and in assay [3] were 0.11 µM and 10.6 µM, respectively.
As for `CC(C)Sc1sc(C(=O)O)c(-c2cccc3oc4ccccc4c23)c1C#N` [3-(1-Dibenzofuranyl)-4-cyano-5-(isopropylthio)thiophene-2-carboxylic acid (1gg)], the figures for the IC50 in assay [1], in assay [2] and in assay [3] were 15 µM, 1 µM and 3.3 µM, respectively.
`CSCC[C@H](NC(=O)c1ccc(NC[C@@H](N)CS)cc1-c1ccccc1)C(=O)O` [2-{[5-((R)-2-Amino-3-mercapto-propylamino)-biphenyl-2-carbonyl]-amino}-4-methylsulfanyl-butyric acid]: the figures for the IC50 in assay [2] and in assay [3] were 0.00078 µM and 0.01 µM, respectively.
For the molecule `CC(C)Sc1sc(C(=O)O)c(-c2cccc(F)c2)c1C#N` [3-(3-Fluorophenyl)-4-cyano-5-(isopropylthio)thiophene-2-carboxylic acid (1e)], the concentration for half-maximal inhibition (IC50) amounted to 23 µM in assay [1], 0.46 µM in assay [2] and 32 µM in assay [3].
On to `CC(C)Sc1sc(C(=O)O)c(-c2cccc(C(F)(F)F)c2)c1C#N` [3-(3-(Trifluoromethyl)phenyl)-4-cyano-5-(isopropylthio)thiophene-2-carboxylic acid (1h)], for which the values for the IC50 in assay [1], in assay [2] and in assay [3] were 34 µM, 1.6 µM and 19 µM, respectively.
In the case of `Cc1ccccc1-c1c(C(=O)O)sc(SC(C)C)c1C#N` [3-(2-Tolyl)-4-cyano-5-(isopropylthio)thiophene-2-carboxylic acid (1v)], the IC50 in assay [1] is greater than 50 µM; in assay [2], 3.1 µM; in assay [3] it was greater than 50 µM.
As to `COc1cccc(-c2c(C(=O)O)sc(SC(C)C)c2C#N)c1` [3-(3-Methoxyphenyl)-4-cyano-5-(isopropylthio)thiophene-2-carboxylic acid (1k)], the values for the concentration for half-maximal inhibition (IC50) in assay [2] and in assay [3] were 1.6 µM and 18 µM, respectively.
In the case of `CC(C)Sc1sc(C(=O)O)c(-c2cccc(-c3ccccc3)c2)c1C#N` [3-(3-Biphenyl)-4-cyano-5-(isopropylthio)thiophene-2-carboxylic acid (1aa)], the results for the IC50 in assay [1], in assay [2] and in assay [3] were 3.3 µM, 0.64 µM and 5.4 µM, respectively.
As to `CC(C)Sc1sc(C(=O)O)c(-c2ccccc2F)c1C#N` [3-(2-Fluorophenyl)-4-cyano-5-(isopropylthio)thiophene-2-carboxylic acid (1f)], the half-maximal inhibitory concentration (IC50) was greater than 50 µM in assay [1], 1.3 µM in assay [2] and 46 µM in assay [3].
As to `COC(=O)c1cccc(-c2c(C(=O)O)sc(SC(C)C)c2C#N)c1` [3-(3-(Methoxycarbonyl)phenyl)-4-cyano-5-(isopropylthio)thiophene-2-carboxylic acid (1q)], the figures for the IC50 in assay [1], in assay [2] and in assay [3] were 7 µM, 0.62 µM and 6.9 µM, respectively.
For `CC(C)Sc1sc(C(=O)O)c(-c2ccc(-c3ccccc3)cc2)c1C#N` [3-(4-Biphenyl)-4-cyano-5-(isopropylthio)thiophene-2-carboxylic acid (1z)], the results for the IC50 in assay [1], in assay [2] and in assay [3] were 5.5 µM, 2.7 µM and 32 µM, respectively.
Take `Cc1cccc(-c2c(C(=O)O)sc(SC(C)C)c2C#N)c1` [3-(3-Tolyl)-4-cyano-5-(isopropylthio)thiophene-2-carboxylic acid (1u)]: the values for the IC50 in assay [1], in assay [2] and in assay [3] were 16 µM, 1.4 µM and 34 µM, respectively.
For `COc1ccc(-c2c(C(=O)O)sc(SC(C)C)c2C#N)cc1` [3-(4-Methoxyphenyl)-4-cyano-5-(isopropylthio)thiophene-2-carboxylic acid (1j)], the IC50 was found to be 0.25 µM in assay [2] and 8.6 µM in assay [3].
With `CC(C)Sc1sc(C(=O)O)c(-c2cccc3ccccc23)c1C#N` [3-(1-Naphthyl)-4-cyano-5-(isopropylthio)thiophene-2-carboxylic acid (1x)], the results for the IC50 in assay [1], in assay [2] and in assay [3] were 32 µM, 1.1 µM and 10.5 µM, respectively.
As for `CC(C)Sc1sc(C(=O)O)c(-c2cccc(Cl)c2)c1C#N` [3-(3-Chlorophenyl)-4-cyano-5-(isopropylthio)thiophene-2-carboxylic acid (1b)], the IC50 in assay [1] came to 48 µM; in assay [2], 1.3 µM; in assay [3] it was 14.5 µM.

(Values after BindingDB's records for doi:10.3109/14756366.2011.643302 (Centre de Recherche de Gif, 2013).)
